# Laboratory results as given in the supplement of paper PMC5908809.
# Key:
# [1] = tested on: normal NK cells expanded with K562-aAPC; experiment: drug sensitivity score (DSS) (DSS units); higher = more sensitive; extreme values may be limits of the assay; conditions: 72 h; IL-2 2.5 ng/mL
# Description: (§1)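 Drug sensitivity and resistance testing on K562-aAPC-expanded normal NK cells: 5 concentrations (10-fold steps over a 10,000-fold range), 72 h at 37 °C, viability by CellTiter-Glo normalised to DMSO and benzethonium chloride controls; DSS from the fitted curve.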
# [2] = tested on: normal NK cells expanded with K562-aAPC; experiment: percent inhibition of viability; higher = more inhibition; conditions: 72 h, IL-2 2.5 ng/mL
# Description: as §1
# [3] = tested on: normal primary NK cells, pool 2 (3 donors) (IL-2 2.5 ng/mL); experiment: drug sensitivity score (DSS) (DSS units); higher = more sensitive; extreme values may be limits of the assay; conditions: 72 h
# [4] = tested on: NKL (IL-2 2.5 ng/mL); experiment: as above; conditions: 72 h
# [5] = tested on: NK-92 (IL-2 2.5 ng/mL); experiment: as above; conditions: 72 h
# [6] = tested on: normal primary NK cells, pool 3 (3 donors) (IL-2 2.5 ng/mL); experiment: as above; conditions: 72 h
# [7] = tested on: YT (IL-2 2.5 ng/mL); experiment: as above; conditions: 72 h
# [8] = tested on: NK-YS (IL-2 2.5 ng/mL); experiment: as above; conditions: 72 h
# [9] = tested on: normal primary NK cells, pool 1 (3 donors) (IL-2 2.5 ng/mL); experiment: as above; conditions: 72 h
# [10] = tested on: IMC-1 (IL-2 20 ng/mL); experiment: as above; conditions: 72 h
# [11] = tested on: DERL-7 (IL-2 2.5 ng/mL); experiment: as above; conditions: 72 h
# [12] = tested on: normal primary NK cells, pool 1 (3 donors), resting (IL-2 0 ng/mL); experiment: as above; conditions: 72 h
# [13] = tested on: KHYG-1 (IL-2 2.5 ng/mL); experiment: as above; conditions: 72 h
# [14] = tested on: KAI3 (IL-2 2.5 ng/mL); experiment: as above; conditions: 72 h
# [15] = tested on: SNK-6 (IL-2 2.5 ng/mL); experiment: as above; conditions: 72 h
# [16] = tested on: normal primary NK cells, pool 2 (3 donors) (IL-2 2.5 ng/mL); experiment: percent inhibition of viability; higher = more inhibition; conditions: 72 h
# [17] = tested on: NKL (IL-2 2.5 ng/mL); experiment: as above; conditions: 72 h
# [18] = tested on: NK-92 (IL-2 2.5 ng/mL); experiment: as above; conditions: 72 h
# [19] = tested on: normal primary NK cells, pool 3 (3 donors) (IL-2 2.5 ng/mL); experiment: as above; conditions: 72 h
# [20] = tested on: YT (IL-2 2.5 ng/mL); experiment: as above; conditions: 72 h
# [21] = tested on: NK-YS (IL-2 2.5 ng/mL); experiment: as above; conditions: 72 h
# [22] = tested on: normal primary NK cells, pool 1 (3 donors) (IL-2 2.5 ng/mL); experiment: as above; conditions: 72 h
# [23] = tested on: IMC-1 (IL-2 20 ng/mL); experiment: as above; conditions: 72 h
# [24] = tested on: DERL-7 (IL-2 2.5 ng/mL); experiment: as above; conditions: 72 h
# [25] = tested on: normal primary NK cells, pool 1 (3 donors), resting (IL-2 0 ng/mL); experiment: as above; conditions: 72 h
# [26] = tested on: KHYG-1 (IL-2 2.5 ng/mL); experiment: as above; conditions: 72 h
# [27] = tested on: KAI3 (IL-2 2.5 ng/mL); experiment: as above; conditions: 72 h
# [28] = tested on: SNK-6 (IL-2 2.5 ng/mL); experiment: as above; conditions: 72 h
compound,measurement,setting,value
NC(=O)N1CCC(CC(=O)N2CCC([C@H]3c4ncc(Br)cc4CCc4cc(Cl)cc(Br)c43)CC2)CC1 [Lonafarnib] (max concentration tested 10000 nM),drug sensitivity score,[1],1.95
same,percent inhibition of viability,[2]; 1 nM,-2.48%
same,percent inhibition of viability,[2]; 10 nM,-4.83%
same,percent inhibition of viability,[2]; 100 nM,1.81%
same,percent inhibition of viability,[2]; 1000 nM,10.5%
same,percent inhibition of viability,[2]; 10000 nM,25.2%
same,drug sensitivity score,[3],6.83
same,drug sensitivity score,[4],4.21
same,drug sensitivity score,[5],7.81
same,drug sensitivity score,[6],4.3
same,drug sensitivity score,[7],6.47
same,drug sensitivity score,[8],12.2
same,drug sensitivity score,[9],8.02
same,drug sensitivity score,[10],1.66
same,drug sensitivity score,[11],9.51
same,drug sensitivity score,[12],11.6
same,drug sensitivity score,[13],13
same,drug sensitivity score,[14],6.28
same,drug sensitivity score,[15],6.27
same,percent inhibition of viability,[16]; 1 nM,-4.12%
same,percent inhibition of viability,[16]; 10 nM,2.21%
same,percent inhibition of viability,[16]; 100 nM,1.62%
same,percent inhibition of viability,[16]; 1000 nM,17.7%
same,percent inhibition of viability,[16]; 10000 nM,73.4%
same,percent inhibition of viability,[17]; 1 nM,-11.3%
same,percent inhibition of viability,[17]; 10 nM,-10.4%
same,percent inhibition of viability,[17]; 100 nM,-4.09%
same,percent inhibition of viability,[17]; 1000 nM,19.2%
same,percent inhibition of viability,[17]; 10000 nM,37.3%
same,percent inhibition of viability,[18]; 1 nM,-13%
same,percent inhibition of viability,[18]; 10 nM,-12.8%
same,percent inhibition of viability,[18]; 100 nM,-0.32%
same,percent inhibition of viability,[18]; 1000 nM,39.8%
same,percent inhibition of viability,[18]; 10000 nM,57.2%
same,percent inhibition of viability,[19]; 1 nM,-2.09%
same,percent inhibition of viability,[19]; 10 nM,0.34%
same,percent inhibition of viability,[19]; 100 nM,2.3%
same,percent inhibition of viability,[19]; 1000 nM,9.06%
same,percent inhibition of viability,[19]; 10000 nM,52.3%
same,percent inhibition of viability,[20]; 1 nM,-2.94%
same,percent inhibition of viability,[20]; 10 nM,-2.27%
same,percent inhibition of viability,[20]; 100 nM,4.51%
same,percent inhibition of viability,[20]; 1000 nM,28.1%
same,percent inhibition of viability,[20]; 10000 nM,60.1%
same,percent inhibition of viability,[21]; 1 nM,-6.93%
same,percent inhibition of viability,[21]; 10 nM,-2.78%
same,percent inhibition of viability,[21]; 100 nM,13.2%
same,percent inhibition of viability,[21]; 1000 nM,56.3%
same,percent inhibition of viability,[21]; 10000 nM,79.7%
same,percent inhibition of viability,[22]; 1 nM,-10.4%
same,percent inhibition of viability,[22]; 10 nM,-3.37%
same,percent inhibition of viability,[22]; 100 nM,6.08%
same,percent inhibition of viability,[22]; 1000 nM,19.4%
same,percent inhibition of viability,[22]; 10000 nM,88.9%
same,percent inhibition of viability,[23]; 1 nM,-4.85%
same,percent inhibition of viability,[23]; 10 nM,-3.21%
same,percent inhibition of viability,[23]; 100 nM,-6.32%
same,percent inhibition of viability,[23]; 1000 nM,-1.06%
same,percent inhibition of viability,[23]; 10000 nM,36.6%
same,percent inhibition of viability,[24]; 1 nM,3.48%
same,percent inhibition of viability,[24]; 10 nM,0.48%
same,percent inhibition of viability,[24]; 100 nM,5.47%
same,percent inhibition of viability,[24]; 1000 nM,44.5%
same,percent inhibition of viability,[24]; 10000 nM,73%
same,percent inhibition of viability,[25]; 1 nM,-4.29%
same,percent inhibition of viability,[25]; 10 nM,2.54%
same,percent inhibition of viability,[25]; 100 nM,32.3%
same,percent inhibition of viability,[25]; 1000 nM,35.8%
same,percent inhibition of viability,[25]; 10000 nM,90%
same,percent inhibition of viability,[26]; 1 nM,-3.98%
same,percent inhibition of viability,[26]; 10 nM,-2.08%
same,percent inhibition of viability,[26]; 100 nM,3.33%
same,percent inhibition of viability,[26]; 1000 nM,67.6%
same,percent inhibition of viability,[26]; 10000 nM,83.9%
same,percent inhibition of viability,[27]; 1 nM,-4.05%
same,percent inhibition of viability,[27]; 10 nM,0.27%
same,percent inhibition of viability,[27]; 100 nM,9.71%
same,percent inhibition of viability,[27]; 1000 nM,30.5%
same,percent inhibition of viability,[27]; 10000 nM,38.6%
same,percent inhibition of viability,[28]; 1 nM,3.51%
same,percent inhibition of viability,[28]; 10 nM,1.11%
same,percent inhibition of viability,[28]; 100 nM,8.58%
same,percent inhibition of viability,[28]; 1000 nM,31.1%
same,percent inhibition of viability,[28]; 10000 nM,33.3%
CC[C@@]1(O)C(=O)OCc2c1cc1n(c2=O)Cc2cc3ccccc3nc2-1 [Camptothecin] (max concentration tested 5000 nM),drug sensitivity score,[1],19.8
same,percent inhibition of viability,[2]; 0.5 nM,4.05%
same,percent inhibition of viability,[2]; 5 nM,11.2%
same,percent inhibition of viability,[2]; 50 nM,54.7%
same,percent inhibition of viability,[2]; 500 nM,59.6%
same,percent inhibition of viability,[2]; 5000 nM,97.7%
same,drug sensitivity score,[3],6.31
same,drug sensitivity score,[4],43.1
same,drug sensitivity score,[5],35.6
same,drug sensitivity score,[6],8.23
same,drug sensitivity score,[7],29.5
same,drug sensitivity score,[8],38.3
same,drug sensitivity score,[9],4.65
same,drug sensitivity score,[10],31
same,drug sensitivity score,[11],33.3
same,drug sensitivity score,[12],0
same,drug sensitivity score,[13],36.8
same,drug sensitivity score,[14],36.2
same,drug sensitivity score,[15],37.5
same,percent inhibition of viability,[16]; 0.5 nM,-7.85%
same,percent inhibition of viability,[16]; 5 nM,0.79%
same,percent inhibition of viability,[16]; 50 nM,8.18%
same,percent inhibition of viability,[16]; 500 nM,26.8%
same,percent inhibition of viability,[16]; 5000 nM,60.9%
same,percent inhibition of viability,[17]; 0.5 nM,11.3%
same,percent inhibition of viability,[17]; 5 nM,91.1%
same,percent inhibition of viability,[17]; 50 nM,102%
same,percent inhibition of viability,[17]; 500 nM,98.4%
same,percent inhibition of viability,[17]; 5000 nM,92.3%
same,percent inhibition of viability,[18]; 0.5 nM,4.55%
same,percent inhibition of viability,[18]; 5 nM,41.4%
same,percent inhibition of viability,[18]; 50 nM,101%
same,percent inhibition of viability,[18]; 500 nM,102%
same,percent inhibition of viability,[18]; 5000 nM,99.6%
same,percent inhibition of viability,[19]; 0.5 nM,0.98%
same,percent inhibition of viability,[19]; 5 nM,3.16%
same,percent inhibition of viability,[19]; 50 nM,10.9%
same,percent inhibition of viability,[19]; 500 nM,36.9%
same,percent inhibition of viability,[19]; 5000 nM,60.6%
same,percent inhibition of viability,[20]; 0.5 nM,-3.33%
same,percent inhibition of viability,[20]; 5 nM,5.46%
same,percent inhibition of viability,[20]; 50 nM,90%
same,percent inhibition of viability,[20]; 500 nM,100%
same,percent inhibition of viability,[20]; 5000 nM,99.6%
same,percent inhibition of viability,[21]; 0.5 nM,0.45%
same,percent inhibition of viability,[21]; 5 nM,66.1%
same,percent inhibition of viability,[21]; 50 nM,93.3%
same,percent inhibition of viability,[21]; 500 nM,87.5%
same,percent inhibition of viability,[21]; 5000 nM,100%
same,percent inhibition of viability,[22]; 0.5 nM,-11.7%
same,percent inhibition of viability,[22]; 5 nM,2.76%
same,percent inhibition of viability,[22]; 50 nM,-4.81%
same,percent inhibition of viability,[22]; 500 nM,19.9%
same,percent inhibition of viability,[22]; 5000 nM,41.6%
same,percent inhibition of viability,[23]; 0.5 nM,-1.32%
same,percent inhibition of viability,[23]; 5 nM,4.46%
same,percent inhibition of viability,[23]; 50 nM,99.7%
same,percent inhibition of viability,[23]; 500 nM,100%
same,percent inhibition of viability,[23]; 5000 nM,100%
same,percent inhibition of viability,[24]; 0.5 nM,1%
same,percent inhibition of viability,[24]; 5 nM,20.8%
same,percent inhibition of viability,[24]; 50 nM,97.7%
same,percent inhibition of viability,[24]; 500 nM,92.9%
same,percent inhibition of viability,[24]; 5000 nM,100%
same,percent inhibition of viability,[25]; 0.5 nM,-1.99%
same,percent inhibition of viability,[25]; 5 nM,11.5%
same,percent inhibition of viability,[25]; 50 nM,-26.2%
same,percent inhibition of viability,[25]; 500 nM,-25.7%
same,percent inhibition of viability,[25]; 5000 nM,-5.52%
same,percent inhibition of viability,[26]; 0.5 nM,-0.47%
same,percent inhibition of viability,[26]; 5 nM,50.6%
same,percent inhibition of viability,[26]; 50 nM,101%
same,percent inhibition of viability,[26]; 500 nM,102%
same,percent inhibition of viability,[26]; 5000 nM,99.9%
same,percent inhibition of viability,[27]; 0.5 nM,11.5%
same,percent inhibition of viability,[27]; 5 nM,49.2%
same,percent inhibition of viability,[27]; 50 nM,86.9%
same,percent inhibition of viability,[27]; 500 nM,62.4%
same,percent inhibition of viability,[27]; 5000 nM,97.2%
same,percent inhibition of viability,[28]; 0.5 nM,19.8%
same,percent inhibition of viability,[28]; 5 nM,56.5%
same,percent inhibition of viability,[28]; 50 nM,96.8%
same,percent inhibition of viability,[28]; 500 nM,98%
same,percent inhibition of viability,[28]; 5000 nM,99.4%
